Data: patent publication US9617283B2, “Bicyclic heterocycle compounds and their uses in therapy” (ASTEX THERAPEUTICS LIMITED, priority 2012, dated 2017)
Counter-ions that a name gives are not always drawn. Like-named read-outs stand apart in the source and are kept apart here.

Columns and labels:
[1] = target: T1, BIR3 domain of human XIAP (residues 252-350) (Homo sapiens, UniProt P98170); assay: XIAP in vitro competitive displacement binding assay (fluorescence polarization); conditions: 1 h, percent inhibition (PI) at 0.04 μM; read-out: Xiap IC50 or PI μM
T1 construct: BIR3 domain of human XIAP (residues 252-350); His-tag (cleaved yes); made in house; host or cells: Escherichia coli

[2] = tested on: EVSA-T (human breast carcinoma); assay: Anti-proliferative activity, Alamar Blue assay, EVSA-T; assay type: cell-based
[3] = Homo sapiens, EVSA-T, 72 h, EVSA-T cell line, 72 hours, Alamar Blue; read-out: EVSA-T prolif
[4] = Homo sapiens, EVSA-T; read-out: EC50 in EVSA-T cell line assays

T1 sequence (P98170 252-350): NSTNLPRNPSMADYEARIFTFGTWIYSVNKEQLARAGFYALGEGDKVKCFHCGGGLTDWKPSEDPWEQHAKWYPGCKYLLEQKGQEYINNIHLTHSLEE

CCCC(F)(F)c1cc2c(cn1)C(C)(C)CN2C(=O)CN1C[C@@H](C)NC[C@@H]1CN1C[C@H](C)CC1=O [Example 72, (4R)-1-{[(2R,5R)-1-{2-[6-(1,1-Difluorobutyl)-3,3-dimethyl-1H,2H,3H-pyrrolo[3,2-c]pyridin-1-yl]-2-oxoethyl}-5-methylpiperazin-2-yl]methyl}-4-methylpyrrolidin-2-one dihydrochloride]
inhibition at 0.04 µM [1]: 79% | EC50 [2, 3]: 27 nM | EC50 [2, 4]: < 1000 nM

C[C@H]1CC(=O)N(C[C@H]2CN[C@H](C)CN2CC(=O)N2CC(C)(C)c3ncc(Cc4ccc(F)cc4F)cc32)C1 [Example 73, (4S)-1-{[(2R,5R)-1-(2-{6-[(2,4-Difluorophenyl)methyl]-3,3-dimethyl-1H,2H,3H-pyrrolo[3,2-b]pyridin-1-yl}-2-oxoethyl)-5-methylpiperazin-2-yl]methyl}-4-methylpyrrolidin-2-one dihydrochloride]
inhibition at 0.04 µM [1]: 64% | EC50 [2, 3]: 2.5 nM | EC50 [2, 4]: < 1000 nM

C[C@H]1CC(=O)N(C[C@H]2CN[C@H](C)CN2CC(=O)N2CC(C)(C)c3cnc(Cc4ccc(F)cc4F)cc32)C1 [Example 74, (4S)-1-{[(2R,5R)-1-(2-{6-[(2,4-Difluorophenyl)methyl]-3,3-dimethyl-1H,2H,3H-pyrrolo[3,2-c]pyridin-1-yl}-2-oxoethyl)-5-methylpiperazin-2-yl]methyl}-4-methylpyrrolidin-2-one dihydrochloride]
inhibition at 0.04 µM [1]: 71% | EC50 [2, 3]: 1.8 nM | EC50 [2, 4]: < 1000 nM

CCCC(F)(F)c1cc2c(cn1)C(C)(C)CN2C(=O)CN1C[C@@H](C)NC[C@@H]1CN1C[C@@H](C)CC1=O [Example 75, (4S)-1-{[(2R,5R)-1-{2-[6-(1,1-Difluorobutyl)-3,3-dimethyl-1H,2H,3H-pyrrolo[3,2-c]pyridin-1-yl]-2-oxoethyl}-5-methylpiperazin-2-yl]methyl}-4-methylpyrrolidin-2-one dihydrochloride]
inhibition at 0.04 µM [1]: 75% | EC50 [2, 3]: 14 nM | EC50 [2, 4]: < 1000 nM

C[C@@H]1CN(CC(=O)N2CC(C)(C)c3cnc(Cc4ccc(F)cc4F)cc32)[C@@H](CN2Cc3ccccc3C2=O)CN1 [Example 77, 2-{[(2R,5R)-1-(2-{6-[(2,4-Difluorophenyl)methyl]-3,3-dimethyl-1H,2H,3H-pyrrolo[3,2-c]pyridin-1-yl}-2-oxoethyl)-5-methylpiperazin-2-yl]methyl}-2,3-dihydro-1H-isoindol-1-one dihydrochloride]
inhibition at 0.04 µM [1]: 90% | EC50 [2, 3]: 0.17 nM | EC50 [2, 4]: < 1000 nM

CCCC(F)(F)c1cc2c(cn1)C(C)(C)CN2C(=O)CN1C[C@@H](C)NC[C@@H]1CN1Cc2ccncc2C1=O [Example 78, 2-{[(2R,5R)-1-{2-[6-(1,1-Difluorobutyl)-3,3-dimethyl-1H,2H,3H-pyrrolo[3,2-c]pyridin-1-yl]-2-oxoethyl}-5-methylpiperazin-2-yl]methyl}-1H,2H,3H-pyrrolo[3,4-c]pyridin-3-one dihydrochloride]
inhibition at 0.04 µM [1]: 64% | EC50 [2, 3]: 3.4 nM | EC50 [2, 4]: < 1000 nM

C[C@@H]1CN(CC(=O)N2CC(C)(C)c3cnc(Cc4ccc(F)cc4F)cc32)[C@@H](CN2C[C@H](C)N(C)CC2=O)CN1 [Example 81, (5S)-1-{[(2R,5R)-1-(2-{6-[(2,4-Difluorophenyl)methyl]-3,3-dimethyl-1H,2H,3H-pyrrolo[3,2-c]pyridin-1-yl}-2-oxoethyl)-5-methylpiperazin-2-yl]methyl}-4,5-dimethylpiperazin-2-one dihydrochloride]
inhibition at 0.04 µM [1]: 52% | EC50 [2, 3]: 2.8 nM | EC50 [2, 4]: < 1000 nM

C[C@@H]1CN(CC(=O)N2CC(C)(C)c3ncc([C@H](O)c4ccc(F)cc4)cc32)[C@@H](CN2Cc3ccccc3C2=O)CN1 [Example 84, 2-{[(2R,5R)-1-(2-{6-[(R)-(4-Fluorophenyl)(hydroxy)methyl]-3,3-dimethyl-1H,2H,3H-pyrrolo[3,2-b]pyridin-1-yl}-2-oxoethyl)-5-methylpiperazin-2-yl]methyl}-2,3-dihydro-1H-isoindol-1-one dihydrochloride]
inhibition at 0.04 µM [1]: 51% | EC50 [2, 3]: 150 nM | EC50 [2, 4]: < 1000 nM

C[C@@H]1CN(CC(=O)N2CC(C)(C)c3cnc(Cc4ccc(F)cc4F)cc32)[C@@H](CN2C[C@@H](C)N(C)CC2=O)CN1 [Example 85, (5R)-1-{[(2R,5R)-1-(2-{6-[(2,4-Difluorophenyl)methyl]-3,3-dimethyl-1H,2H,3H-pyrrolo[3,2-c]pyridin-1-yl}-2-oxoethyl)-5-methylpiperazin-2-yl]methyl}-4,5-dimethylpiperazin-2-one dihydrochloride]
inhibition at 0.04 µM [1]: 45% | EC50 [2, 3]: 4.5 nM | EC50 [2, 4]: < 1000 nM

COc1ccc2c(c1)CN(C[C@H]1CN[C@H](C)CN1CC(=O)N1CC(C)(C)c3cnc(Cc4ccc(F)cc4)cc31)C2=O [Example 92, 2-{[(2R,5R)-1-(2-{6-[(4-Fluorophenyl)methyl]-3,3-dimethyl-1H,2H,3H-pyrrolo[3,2-c]pyridin-1-yl}-2-oxoethyl)-5-methylpiperazin-2-yl]methyl}-5-methoxy-2,3-dihydro-1H-isoindol-1-one dihydrochloride]
inhibition at 0.04 µM [1]: 93% | EC50 [2, 3]: 0.26 nM | EC50 [2, 4]: < 1000 nM

C[C@@H]1CN(CC(=O)N2CC(C)(C)c3ncc([C@@H](O)c4ccc(F)cc4)cc32)[C@@H](CN2Cc3ccccc3C2=O)CN1 [Example 96, 2-{[(2R,5R)-1-(2-{6-[(S)-(4-Fluorophenyl)(hydroxy)methyl]-3,3-dimethyl-1H,2H,3H-pyrrolo[3,2-b]pyridin-1-yl}-2-oxoethyl)-5-methylpiperazin-2-yl]methyl}-2,3-dihydro-1H-isoindol-1-one]
inhibition at 0.04 µM [1]: 62% | EC50 [2, 3]: 31 nM | EC50 [2, 4]: < 1000 nM

C[C@@H]1CN(CC(=O)N2CC(C)(C)c3ncc(Cc4ccc(F)cc4F)cc32)[C@@H](CN2C[C@H](C)N(C)CC2=O)CN1 [Example 98, (5S)-1-{[(2R,5R)-1-(2-{6-[(2,4-Difluorophenyl)methyl]-3,3-dimethyl-1H,2H,3H-pyrrolo[3,2-b]pyridin-1-yl}-2-oxoethyl)-5-methylpiperazin-2-yl]methyl}-4,5-dimethylpiperazin-2-one dihydrochloride]
inhibition at 0.04 µM [1]: 39% | EC50 [2, 3]: 3.5 nM | EC50 [2, 4]: < 1000 nM

CCCC(F)(F)c1cc2c(nn1)C(C)(C)CN2C(=O)CN1C[C@@H](C)NC[C@@H]1CN1Cc2ccc(F)cc2C1=O [Example 99, 2-{[(2R,5R)-1-{2-[3-(1,1-Difluorobutyl)-7,7-dimethyl-5H,6H,7H-pyrrolo[3,2-c]pyridazin-5-yl]-2-oxoethyl}-5-methylpiperazin-2-yl]methyl}-6-fluoro-2,3-dihydro-1H-isoindol-1-one dihydrochloride]
inhibition at 0.04 µM [1]: 65% | EC50 [2, 3]: 6.6 nM | EC50 [2, 4]: < 1000 nM

C[C@@H]1CN(CC(=O)N2CC(C)(C)c3ncc(Cc4ccc(F)cc4F)cc32)[C@@H](CN2C(=O)CO[C@@H](C)[C@H]2C)CN1 [Example 100, (5R,6S)-4-{[(2R,5R)-1-(2-{6-[(2,4-Difluorophenyl)methyl]-3,3-dimethyl-1H,2H,3H-pyrrolo[3,2-b]pyridin-1-yl}-2-oxoethyl)-5-methylpiperazin-2-yl]methyl}-5,6-dimethylmorpholin-3-one dihydrochloride]
inhibition at 0.04 µM [1]: 41% | EC50 [2, 3]: 1.9 nM | EC50 [2, 4]: < 1000 nM

COC[C@@H]1CN(C[C@H]2CN[C@H](C)CN2CC(=O)N2CC(C)(C)c3ncc(Cc4ccc(F)cc4)cc32)C(=O)CO1 [Example 102, (6S)-4-{[(2R,5R)-1-(2-{6-[(4-Fluorophenyl)methyl]-3,3-dimethyl-1H,2H,3H-pyrrolo[3,2-b]pyridin-1-yl}-2-oxoethyl)-5-methylpiperazin-2-yl]methyl}-6-(methoxymethyl)morpholin-3-one dihydrochloride]
inhibition at 0.04 µM [1]: 51% | EC50 [2, 3]: 6.9 nM | EC50 ([2]; Homo sapiens, EVSA-T, read-out: EC50 in EVSA-T cell line assays): < 1000 nM

C[C@@H]1CN(CC(=O)N2CC(C)(C)c3ncc(Cc4ccc(F)cc4F)cc32)[C@@H](CN2Cc3cc(O)ccc3C2=O)CN1 [Example 105, 2-{[(2R,5R)-1-(2-{6-[(2,4-Difluorophenyl)methyl]-3,3-dimethyl-1H,2H,3H-pyrrolo[3,2-b]pyridin-1-yl}-2-oxoethyl)-5-methylpiperazin-2-yl]methyl}-5-hydroxy-2,3-dihydro-1H-isoindol-1-one dihydrochloride]
inhibition at 0.04 µM [1]: 90% | EC50 [2, 3]: 6.5 nM | EC50 [2, 4]: < 1000 nM

C[C@@H]1CN(CC(=O)N2CC(C)(C)c3ncc(Cc4ccc(F)cc4F)cc32)[C@@H](CN2Cc3cc(C#N)ccc3C2=O)CN1 [Example 106, 2-{[(2R,5R)-1-(2-{6-[(2,4-Difluorophenyl)methyl]-3,3-dimethyl-1H,2H,3H-pyrrolo[3,2-b]pyridin-1-yl}-2-oxoethyl)-5-methylpiperazin-2-yl]methyl}-1-oxo-2,3-dihydro-1H-isoindole-5-carbonitrile dihydrochloride]
inhibition at 0.04 µM [1]: 90% | EC50 [2, 3]: 2.1 nM | EC50 [2, 4]: < 1000 nM

C[C@@H]1CN(CC(=O)N2CC(C)(C)c3cnc(Cc4ccc(F)cc4)cc32)[C@@H](CN2C[C@H](C)N(C)CC2=O)CN1 [Example 107, (5S)-1-{[(2R,5R)-1-(2-{6-[(4-Fluorophenyl)methyl]-3,3-dimethyl-1H,2H,3H-pyrrolo[3,2-c]pyridin-1-yl}-2-oxoethyl)-5-methylpiperazin-2-yl]methyl}-4,5-dimethylpiperazin-2-one dihydrochloride]
inhibition at 0.04 µM [1]: 67% | EC50 [2, 3]: 11 nM | EC50 [2, 4]: < 1000 nM

C[C@@H]1CN(CC(=O)N2CC(C)(C)c3nnc(Cc4ccc(F)cc4F)cc32)[C@@H](CN2Cc3cc(O)ccc3C2=O)CN1 [Example 108, 2-{[(2R,5R)-1-(2-{3-[(2,4-Difluorophenyl)methyl]-7,7-dimethyl-5H,6H,7H-pyrrolo[3,2-c]pyridazin-5-yl}-2-oxoethyl)-5-methylpiperazin-2-yl]methyl}-5-hydroxy-2,3-dihydro-1H-isoindol-1-one dihydrochloride]
inhibition at 0.04 µM [1]: 88% | EC50 [2, 3]: 11 nM | EC50 [2, 4]: < 1000 nM
